Results reported in ChEMBL document CHEMBL4354843, “Structure-Based Design of a Potent and Selective Covalent Inhibitor for SRC Kinase That Targets a P-Loop Cysteine” (J Med Chem, 2020).

Biological target: Serine/threonine-protein kinase Sgk2 (Homo sapiens) (UniProt Q9HBY8)
Assay: Binding affinity to wild-type human partial length SGK2 (L54 to C427 residues) expressed in mammalian expression system assessed as residual binding level at 1 uM by Kinomescan method relative to control

Sequence of Serine/threonine-protein kinase Sgk2 (Homo sapiens) (Q9HBY8 whole entry, the tested form may be a part): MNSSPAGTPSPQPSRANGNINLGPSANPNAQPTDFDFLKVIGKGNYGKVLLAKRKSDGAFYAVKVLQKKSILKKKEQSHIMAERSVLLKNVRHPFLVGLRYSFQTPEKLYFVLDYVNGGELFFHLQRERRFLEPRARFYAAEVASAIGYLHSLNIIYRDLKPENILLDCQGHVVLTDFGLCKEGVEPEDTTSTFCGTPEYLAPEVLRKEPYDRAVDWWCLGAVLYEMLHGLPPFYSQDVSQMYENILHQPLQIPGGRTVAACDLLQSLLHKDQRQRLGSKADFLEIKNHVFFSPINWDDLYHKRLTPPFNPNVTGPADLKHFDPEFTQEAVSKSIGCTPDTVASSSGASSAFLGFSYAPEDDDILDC

**Q.** For `C=CC(=O)Nc1ccccc1Nc1nc(Nc2ccc(N3CCN(C)CC3)cc2)ncc1C(=O)Nc1c(C)cccc1Cl`, which Activity is on record?
**A.** 100%
